Data from the OligoGym collection.
Bases are written 5' to 3'; sugars and linkages follow in the same order, as letters with counts (s phosphorothioate, o phosphodiester; PS: all linkages phosphorothioate). The collection does not say whether C is 5-methylated. l = locked nucleic acid (LNA); d = 2'-deoxy (DNA)

The sequences below were run against Tau (assay: rat primary cortical neurons, FLIPR, 25 uM ASO).

| Sequence | calcium oscillation score |
| --- | --- |
| CTGTCACTATCACTTCA (sugars l2 d11 l4, PS) | 75.3 % of control |
| CTGTGCTTCAGGCCTT (sugars l3 d10 l3, PS) | 51 % of control |
| CTTAAAATTTTTCTTATTTT (sugars l4 d12 l4, PS) | 62.8 % of control |
| CTTAATTCATTTAATTCTCT (sugars l3 d13 l4, PS) | 90.1 % of control |
| CTTAATTTCACCCTC (sugars l3 d9 l3, PS) | 122 % of control |
| CTTAATTTCACCCTCA (sugars l3 d10 l3, PS) | 40.3 % of control |
| CTTACAACCAACACTGA (sugars l3 d10 l4, PS) | 49.7 % of control |
| CTTACACACCACACACACT (sugars l1 d16 l2, PS) | 100 % of control |
| CTTACACACCACACACACTC (sugars l1 d17 l2, PS) | 88.5 % of control |
| CTTACACATAGCTTCT (sugars l4 d8 l4, PS) | 47.1 % of control |
| CTTACCATCCTATCTTC (sugars l3 d11 l3, PS) | 87 % of control |
| CTTACTGATCATAATC (sugars l4 d8 l4, PS) | 56.4 % of control |
| CTTACTGATCATAATCC (sugars l4 d9 l4, PS) | 85.1 % of control |
| CTTACTTTCTACTCAATTCC (sugars l2 d16 l2, PS) | 60.6 % of control |
| CTTAGCATCAGAGGTTTCAG (sugars l3 d14 l3, PS) | 7.41 % of control |
| CTTAGTCATCTTCCCTC (sugars l2 d13 l2, PS) | 92.4 % of control |
| CTTAGTCATCTTCCCTCA (sugars l2 d14 l2, PS) | 93.8 % of control |
| CTTATTAATTATCTGC (sugars l4 d8 l4, PS) | 33.9 % of control |
| CTTATTGCTTTCCAATTC (sugars l2 d12 l4, PS) | 83.6 % of control |
| CTTCAGGTCTGGCATGGGCA (sugars l3 d14 l3, PS) | 0 % of control |
| CTTCAGTCCTAATCCT (sugars l3 d10 l3, PS) | 95.8 % of control |
| CTTCATTCTTGCCCAA (sugars l3 d10 l3, PS) | 33.3 % of control |
| CTTCCAAGACTTCTCC (sugars l4 d10 l2, PS) | 77.2 % of control |
| CTTCCAGTCCCGTCTT (sugars l3 d10 l3, PS) | 0 % of control |
| CTTCCATCACTTCGAACTCC (sugars l3 d14 l3, PS) | 27.1 % of control |
| CTTCTAATTTAGTCACC (sugars l3 d10 l4, PS) | 54.6 % of control |
| CTTCTAGTTATACAGTTGGC (sugars l3 d14 l3, PS) | 40.5 % of control |

| Sequence | calcium oscillation score |
| --- | --- |
| CTTCTATTACTTGCAAT (sugars l4 d9 l4, PS) | 69 % of control |
| CTTCTCAGCCACTGTT (sugars l3 d10 l3, PS) | 67.9 % of control |
| CTTCTCCAGTATTTCTTC (sugars l2 d13 l3, PS) | 69.4 % of control |
| CTTCTGTCACTTATTTA (sugars l4 d9 l4, PS) | 46.9 % of control |
| CTTGAAGTCAAGCTTCTCAG (sugars l3 d14 l3, PS) | 33.2 % of control |
| CTTGGCTTTGGCGTT (sugars l3 d9 l3, PS) | 82.4 % of control |
| CTTGGCTTTGGCGTTC (sugars l3 d10 l3, PS) | 2.61 % of control |
| CTTGGCTTTTTTGTCATCGC (sugars l3 d14 l3, PS) | 23.3 % of control |
| CTTGGGTGGAGTACGG (sugars l3 d10 l3, PS) | 0 % of control |
| CTTGGGTGGAGTACGGACCA (sugars l3 d14 l3, PS) | 0 % of control |
| CTTGTGATGCAGGA (sugars l3 d8 l3, PS) | 70.5 % of control |
| CTTGTGATGCAGGAG (sugars l3 d9 l3, PS) | 87.8 % of control |
| CTTTAATTTAATCACTC (sugars l4 d9 l4, PS) | 17.3 % of control |
| CTTTAATTTAATCACTCA (sugars l4 d10 l4, PS) | 76.6 % of control |
| CTTTACCCATCTTAATTC (sugars l4 d11 l3, PS) | 86.1 % of control |
| CTTTACCCATCTTAATTCAT (sugars l3 d15 l2, PS) | 82.1 % of control |
| CTTTATTCCCTTAACAATAT (sugars l3 d14 l3, PS) | 74.6 % of control |
| CTTTATTTCCAAATTCAC (sugars l3 d11 l1 d1 l2, PS) | 132 % of control |
| CTTTATTTCCAAATTCAC (sugars l3 d11 l4, PS) | 112 % of control |
| CTTTATTTCCAAATTCAC (sugars l4 d10 l1 d1 l2, PS) | 5.59 % of control |
| CTTTATTTCCAAATTCAC (sugars l4 d10 l4, PS) | 110 % of control |
| CTTTATTTCCAAATTCAC (sugars l5 d9 l1 d1 l2, PS) | 119 % of control |
| CTTTATTTCCAAATTCAC (sugars l5 d9 l4, PS) | 104 % of control |
| CTTTATTTCCAAATTCAC (sugars lldlddddddddddldll, PS) | 136 % of control |
| CTTTATTTCCAAATTCACT (sugars l3 d11 l1 d1 l3, PS) | 116 % of control |
| CTTTATTTCCAAATTCACT (sugars l3 d11 l1 d2 l2, PS) | 140 % of control |
